Columns and labels:
[1] = system: Adult, female rats, mated; assay: Prevention of implantation/pregnancy in mated rats (Example 2); assay type: in vivo, rat; conditions: 10 μg s.c. b.i.d., day 3 to day 6 of gestation; for fate of the implantation sites: sacrificed day 13; for animals having implantation sites: sacrificed day 13, group of 9 (control: 8 of 9 pregnant); for total implantation sites found in the uteri of the group: sacrificed day 13, groups of 8 or 9 (control: 87 implantation and 3 resorbed sites)
Protocol: Adult, female rats weighing an average of 200 g. were mated and then randomly divided into groups of 8 and 9 rats. In all animals, mating was determined by the presence of sperms in the vaginal opening. In all animals, subcutaneous treatment was started on day 3 of gestation and continued until day 6 with 10 μg of the above compound, b.i.d. in an aqueous vehicle containing 0.1% bovine serum albumin and 0.9% sodium chloride at a concentration of 0.02% (wt./vol.). All animals were sacrificed on day 13 and checked for toxic manifestations, fetuses or viable implants.
In the first of four groups (control), the animals received the above vehicle only. […] Upon sacrifice, a total of 87 implantation and 3 resorbed sites was found in the uteri.

Pregnant rabbits = assay: Fetal viability in pregnant rabbits after a single injection (Example 4); assay type: in vivo, rabbit; conditions: single s.c. injection of 12.5 μg/kg on day 14 of gestation, sacrificed day 28 (control: 7 of 8 implants viable)
Protocol: Pregnant rabbits were given single subcutaneous injections of 12.5 μg/kg of the compounds used in Example 2 by the route and vehicle shown there on day 14 of gestation. […] In all instances, the animals were sacrificed on day 28 of gestation.

rats = assay: Reversal of the anti-implantation effect by exogenous estradiol in treated rats; assay type: in vivo, rat; conditions: rats treated days 2-6 of gestation, estradiol 0.1 μg s.c. in sesame oil on days 4 and 5; for animals in which implantation takes place when estradiol is co-administered: of 8 animals

SMILES | fate of the implantation sites [1] | animals showing no signs of implantation ([1]; sacrificed day 13, group of 9) | animals having implantation sites [1] | total implantation sites found in the uteri of the group [1] | viable fetuses per implants (average) (Pregnant rabbits) | viability of embryos when estradiol is co-administered (rats) | animals in which implantation takes place when estradiol is co-administered (rats)
CCNC(=O)[C@@H]1CCCN1C(=O)[C@H](CCCNC(=N)N)NC(=O)[C@H](CC(C)C)NC(=O)[C@@H](Cc1c[nH]c2ccccc12)NC(=O)[C@H](Cc1ccc(O)cc1)NC(=O)[C@H](CO)NC(=O)[C@H](Cc1c[nH]c2ccccc12)NC(=O)[C@H](Cc1c[nH]cn1)NC(=O)[C@@H]1CCC(=O)N1 [Compound A] | all resorbed | Seven | two | 25 | one viable fetus per 7 implants | substantially only viable embryos | 3
CCNC(=O)[C@@H]1CCCN1C(=O)[C@H](CCCNC(=N)N)NC(=O)[C@H](CC(C)C)NC(=O)[C@@H](Cc1ccc(O)cc1)NC(=O)[C@H](Cc1ccc(O)cc1)NC(=O)[C@H](CO)NC(=O)[C@H](Cc1c[nH]c2ccccc12)NC(=O)[C@H](Cc1c[nH]cn1)NC(=O)[C@@H]1CCC(=O)N1 [Compound B] | all 22 counted sites had been resorbed | – | 2 | 22 | one viable fetus per 7 implants | substantially only viable embryos | 3
CCNC(=O)[C@@H]1CCCN1C(=O)[C@H](CCCNC(=N)N)NC(=O)[C@H](CC(C)C)NC(=O)[C@@H](Cc1ccccc1)NC(=O)[C@H](Cc1ccc(O)cc1)NC(=O)[C@H](CO)NC(=O)[C@H](Cc1c[nH]c2ccccc12)NC(=O)[C@H](Cc1c[nH]cn1)NC(=O)[C@@H]1CCC(=O)N1 [Compound C] | resorbed | – | – | single | one viable fetus per 7 implants | substantially only viable embryos | 3

From US4034082A, “Method to prevent reproduction in warm-blooded female animals with nonapeptides” (Abbott Laboratories, priority 1976, dated 1977)
